Target: T1, human ANO6 (variant 5) (Homo sapiens, UniProt Q4KMQ2)
T1 construct: expressed in transfected cells; host or cells: Fischer rat thyroid (FRT) cells
T1 sequence (Q4KMQ2 1-931 isoform Q4KMQ2-2): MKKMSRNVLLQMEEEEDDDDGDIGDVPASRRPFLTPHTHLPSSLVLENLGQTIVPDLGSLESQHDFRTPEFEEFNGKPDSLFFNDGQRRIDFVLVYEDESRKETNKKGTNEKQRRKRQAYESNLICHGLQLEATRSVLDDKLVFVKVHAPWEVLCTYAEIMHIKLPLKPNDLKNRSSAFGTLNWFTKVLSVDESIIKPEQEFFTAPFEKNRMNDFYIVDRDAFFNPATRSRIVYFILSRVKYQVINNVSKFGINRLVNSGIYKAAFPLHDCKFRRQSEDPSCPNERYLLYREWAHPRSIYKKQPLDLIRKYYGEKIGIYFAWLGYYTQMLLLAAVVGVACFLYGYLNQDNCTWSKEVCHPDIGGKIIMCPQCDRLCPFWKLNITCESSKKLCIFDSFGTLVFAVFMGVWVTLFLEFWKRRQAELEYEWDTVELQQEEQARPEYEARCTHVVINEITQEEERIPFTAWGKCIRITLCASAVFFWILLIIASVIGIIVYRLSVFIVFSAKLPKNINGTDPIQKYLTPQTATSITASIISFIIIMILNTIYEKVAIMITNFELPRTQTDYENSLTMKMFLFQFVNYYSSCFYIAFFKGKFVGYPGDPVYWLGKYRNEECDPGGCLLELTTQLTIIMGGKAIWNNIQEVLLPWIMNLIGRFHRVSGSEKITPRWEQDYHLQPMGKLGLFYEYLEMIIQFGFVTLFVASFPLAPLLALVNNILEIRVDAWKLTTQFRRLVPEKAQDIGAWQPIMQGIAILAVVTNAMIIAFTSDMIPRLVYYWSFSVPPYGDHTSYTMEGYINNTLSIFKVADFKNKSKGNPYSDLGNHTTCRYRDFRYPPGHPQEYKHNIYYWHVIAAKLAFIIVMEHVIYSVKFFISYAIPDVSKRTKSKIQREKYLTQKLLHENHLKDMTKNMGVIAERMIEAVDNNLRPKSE
Experiment: Lact C2 assay (measuring phosphatidylserine externalization scramblase function)
Assay type: cell-based
Conditions: FRT, FRT cells expressing human ANO6 (variant 5), ionomycin 10 µM, Lact-C2-GFP fluorescence, average of three tests; for inhibition at 1 µM: compound 1 µM, read-out: % Inhibition 1 µM
Outline: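 Cells were pretreated 10 min with compound (50 nM, 100 nM, 1 µM; 1% DMSO), then given 10 µM ionomycin for 10 min. Surface phosphatidylserine was stained with 500 nM Lact-C2-GFP (10 min, 37 °C), fixed and imaged. Inhibition was scaled between untreated (100%) and ionomycin-alone (0%) wells.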

inhibition at 0.1 µM (compound 100 nM) [%] | inhibition at 1 µM [%] | inhibition at 0.05 µM (compound 50 nM, read-out: % Inhibition 50 nM) [%] | Compound
> 60 | > 60 | – | c1ccc(-c2ccc(Nc3cccc(-c4nc5ccccc5[nH]4)c3)nn2)cc1 [Example 2, N-(3-(1H-benzo[d]imidazol-2-yl)phenyl)-6-phenylpyridazin-3-amine]
– | > 60 | > 60 | Fc1cc2nc(-c3cccc(Nc4ccc(-c5ccccn5)cn4)c3)[nH]c2cc1F [Example 283, N-(3-(5,6-difluoro-1H-benzo[d]imidazol-2-yl)phenyl)-[2,3'-bipyridin] -6'-amine]
– | > 60 | – | CN1CCN(CCOc2ccc(-c3nc4ccc(C(F)(F)F)cc4[nH]3)cc2Nc2ccc(-c3cnccn3)cc2)CC1 [Example 175, 2-[2-(4-methylpiperazin-1-yl)ethoxy]-N-(4-pyrazin-2-ylphenyl)-5-[6-(trifluoromethyl)-1H-benzo[d]imidazol-2-yl]aniline]
– | > 60 | – | Clc1cc2[nH]c(-c3cccc(Nc4ccc(-c5cccnn5)cc4)c3)nc2cn1 [Example 84, 3-(6-chloro-1H-imidazo[4,5-c]pyridin-2-yl)-N-(4-pyridazin-3-ylphenyl)aniline]

Reference: EP4559908A1, “HETEROARYL DERIVATIVE COMPOUND AND USE THEREOF” (S2CBio Inc., priority 2022, dated 2024)
